Assay results taken from patent publication US8715668B2, “Antibody selective for a tumor necrosis factor-related apoptosis-inducing ligand receptor DR5 and uses thereof” (The UAB Research Foundation, priority 2000, dated 2014).

Key:
[1] = system: CLL B cells; experiment: Cytotoxicity to CLL B cells in vitro; format: cell-based, human; details: compared to normal primary B cells
[2] = system: breast cancer lines; experiment: Combined cytotoxicity of TRA-8 with adriamycin; format: cell-based, human
[3] = system: MMP-1, 3, and 13; experiment: ELISA of MMP production by RA synovial cells; format: cell-based, human; details: overnight; 50 ng/ml interleukin 1b, 10 ng/ml TNF-α, 50 ng/ml TRAIL, 50 ng/ml TRA-8
Protocol: Thus, it is possible that TRAIL, like TNF-α, may serve as a pro-inflammatory cytokine. […] The levels of the MMP-1 and MMP-3 in the culture supernatants are determined by the ELISA kits.

[4] = target: T1, DR4 (Homo sapiens, UniProt O00220); experiment: ELISA binding to immobilized DR4-Ig fusion protein
T1 construct: The soluble recombinant human DR4, DcR1, DcR2, TNFR1, R4, and Fas molecules used are human IgG1 fusion proteins; human IgG1 Fc
Protocol: ELISA plates are coated with 2 μg/ml of DR4-Ig or DR5-Ig fusion protein overnight. […] The reactions are developed by TMB substrate buffer and measured by the Benchmark Microplate Reader (BioRad). The Kd values are estimated by the one-site binding model of non-linear regression using GraphPad Prism® software (GraphPad Software, San Diego, Calif.).

[5] = system: Jurkat cells; experiment: Jurkat cell viability (ATPLite, MTT, PI exclusion); format: cell-based, human; details: overnight, TRAIL plus crosslinker
Protocol: (§1) Cell viability is determined using (1) the ATPLite® kit according to the manufacturer's instructions (Packard Instruments, Meriden, Conn.); (2) the MTT Cell proliferation/viability kit (Sigma); or (3) PI staining of dead cells and analyzed by flow cytometry. At end of culture, cells are stained with 10 μg/ml PI and PI negative cells are gated as viable cells. For analysis of condensed nuclei of hepatocytes, cells are stained with 10 ng/ml Hoechst 33352 (Molecular Probes) and analyzed by flow cytometry.

[6] = system: CEM-6; experiment: Apoptosis by ATPLite after overnight incubation; format: cell-based, human
Protocol: as §1

[7] = system: Daudi; experiment: Apoptosis by ATPLite after overnight incubation; format: cell-based, human
Protocol: as §1

[8] = system: EB-3; experiment: Apoptosis by ATPLite after overnight incubation; format: cell-based, human
Protocol: as §1

[9] = system: H-9; experiment: Apoptosis by ATPLite after overnight incubation; format: cell-based, human
Protocol: as §1

[10] = system: Hs683; experiment: Apoptosis by ATPLite after overnight incubation; format: cell-based, human
Protocol: as §1

[11] = system: Molt-4; experiment: Apoptosis by ATPLite after overnight incubation; format: cell-based, human
Protocol: as §1

[12] = system: Raji; experiment: Apoptosis by ATPLite after overnight incubation; format: cell-based, human
Protocol: as §1

[13] = system: SKW6.4; experiment: Apoptosis by ATPLite after overnight incubation; format: cell-based, human
Protocol: as §1

[14] = system: U251-MG; experiment: Apoptosis by ATPLite after overnight incubation; format: cell-based, human
Protocol: as §1

[15] = system: U87; experiment: Apoptosis by ATPLite after overnight incubation; format: cell-based, human
Protocol: as §1

[16] = system: U937; experiment: Apoptosis by ATPLite after overnight incubation; format: cell-based, human
Protocol: as §1

[17] = system: primary B cells; experiment: Apoptosis by ATPLite after overnight incubation; format: cell-based, human
Protocol: as §1

[18] = system: RA synovial cells; experiment: Cell viability of primary cultured RA synovial cells; format: cell-based, human; details: high concentrations (>50 ng/ml)
Source text: (§2) Cell viability is the percentage of the cpm of treated cells versus the cpm of untreated cells.
(§3) The expression of DR5 on a panel of eight primary cultured synovial cells from patients with RA is compared with that on eight primary cultured synovial cells from patients with osteoarthritis (hereinafter referred to as “OA”). The eight human primary RA synovial cell cultures RA-1014, RA-1016, RA-1021, RA-512, RA-707, RA-811, RA-716, and RA-929 are kindly provided by Dr. M. Ohtsuki (Sankyo Co. Ltd., Tokyo, Japan) and cultured in DMEM supplemented with 10% FCS, penicillin, streptomycin, and glutamine. The […] OA synovial cell primary cell cultures are isolated from the synovial tissues of OA patients by a standard collagenase method and cultured under the same conditions. The passage number of all primary cells is under 10. The expression of DR5 is determined by FACs analysis as described in Example 5.

[19] = system: OA synovial cells; experiment: Cell viability of primary cultured OA synovial cells; format: cell-based, human; details: OA72M
Source text: as §2, §3

[20] = system: normal human hepatocytes; experiment: Viability of normal human hepatocytes (ATPLite); format: cell-based
Source text: For 24-hour cell viability assays, fresh normal human hepatocytes in 96-well plates were purchased from In Vitro Technology (Baltimore, Md.). […] For 6-hour viability assays, normal hepatocytes or hepatocellular cancer cells are isolated from fresh surgical specimens collected from UAB Tissue Procurement Center. All reagents for isolation of human hepatocytes including hepatocytes perfusion buffer, digest medium, washing medium, and attachment medium were purchased from Gibco. The tissue slides are digested in the Hepatocyte Digest Medium at 37° C. with shaking (50 rpm) for one hour. The isolated hepatocytes are harvested by low speed centrifugation (50 g, 3 min), and washed with the Hepatocyte Washing Medium six times. Single cell suspension of hepatocytes are cultured in the Attachment Medium containing 10% FCS in 96-well Matrigel plates (BD) for six hours. Non-attached hepatocytes are removed by twice washing with pre-warmed attachment medium.

[21] = system: liver; experiment: Induction of hepatitis in vivo by tetracycline-inducible adenoviral vectors; design: species or system B6 mice; details: Ad/TRAIL inoculated mice; 10 μg soluble human TRAIL
Protocol: 8-10 week-old female B6 mice are intravenously injected with 10^9 pfu of Ad/hTRAIL with the equal number of Ad/Tet-on. Mice are fed with different concentrations of tetracycline in their drinking water immediately after inoculation of adenoviral vectors. Liver injury is determined by serum levels of AST using an AST diagnostic kit (Sigma). Expression of TRAIL is determined by Northern blot analysis.

[22] = system: Jurkat cells; experiment: Apoptosis-inducing activity of humanized antibody on Jurkat cells (XTT); format: cell-based, human; details: 12 hours; serial 2-fold dilution from 100 ng/ml
Protocol: Jurkat cells cultured in RPMI1640 medium with 10% FCS (Gibco BRL) at 37° C. for 3 days in the presence of 5% CO2 are dispensed into each well of a 96-well microplate (Sumitomo Bakelite) at 50 μl per well. […] Each of the solutions of the expression products thus adjusted to 100 ng/ml is used to produce serial dilutions by repeating serial 2-fold dilution with RPMI1640 containing 10% FCS. […] After reacting at 37° C. for 12 hours, 50 μl of 25 μM PMS (phenazine methosulfate; Sigma Chemical Co.) containing 1 mg/ml XTT (2,3-bis [2-methoxy-4-nitro-5-sulfophenyl]-2H-tetrazolium-5-carboxyaniride inner salt; Sigma Chemical Co.) is added (final concentrations of 250 μg/ml for XTT and 5 μM for PMS). After incubating for 3 hours, the absorbance at 450 nm of each well is measured to calculate the cell viability by using the reduction ability of mitochondria as the index.
The viability of the cells in each well is calculated according to the following formula: Viability(%)=100×(a−b)/(c−b) wherein “a” is the measurement of a test well, “b” is the measurement of a well with no cells, and “c” is the measurement of a well with no antibody added.
Jurkat cells cultured in RPMI1640 medium with 10% FCS (Gibco BRL) at 37° C. for 3 days in the presence of 5% CO2 are dispensed into each well of a 96-well microplate (Sumitomo Bakelite) at 50 μl per well. […]

T1 sequence (O00220 24-239 limits assumed): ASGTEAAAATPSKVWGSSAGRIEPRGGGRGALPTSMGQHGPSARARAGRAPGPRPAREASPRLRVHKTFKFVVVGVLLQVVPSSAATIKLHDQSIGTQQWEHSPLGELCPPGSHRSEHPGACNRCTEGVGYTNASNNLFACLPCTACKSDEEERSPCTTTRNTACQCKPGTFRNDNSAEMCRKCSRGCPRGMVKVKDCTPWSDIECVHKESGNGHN

Molecule: Cn1cc(C2=C(c3cn(CCCN)c4ccccc34)C(=O)NC2=O)c2ccccc21 [BisVIII, Bisindolylmaleimide VIII]
- susceptibility of CLL B cells [1]: sensitive

Molecule: COc1cccc2c1C(=O)c1c(O)c3c(c(O)c1C2=O)C[C@@](O)(C(=O)CO)C[C@@H]3O[C@H]1C[C@H](N)[C@H](O)[C@H](C)O1 [adriamycin]
- effect on TRA-8-induced apoptosis ([2]; high doses of adriamycin): additive effect
- effect on TRA-8-induced apoptosis ([2]; low doses of adriamycin, some TRA-8 resistant lines): synergistically enhance

Molecule: IL-1b: proinflammatory cytokine
- production/release of MMPs [3]: increased

Molecule: TNF-α
- production/release of MMPs [3]: increased

Molecule: TRAIL: Soluble recombinant human TRAIL (aa residues 95 to 281) fused to a FLAG-tag, Alexis; used with anti-FLAG crosslinker
- binding activity to DR4 [4]: bound to DR4
- susceptibility to apoptosis [5]: highly susceptible
- susceptibility to apoptosis [6]: highly susceptible
- susceptibility to apoptosis [7]: much less susceptible
- susceptibility to apoptosis [8]: very susceptible
- susceptibility to apoptosis [9]: resistant
- susceptibility to apoptosis [10]: resistant
- susceptibility to apoptosis [11]: partially susceptible
- susceptibility to apoptosis [12]: very susceptible
- susceptibility to apoptosis [13]: very susceptible
- susceptibility to apoptosis [14]: resistant
- susceptibility to apoptosis [15]: exhibited sensitivity
- susceptibility to apoptosis [16]: partially susceptible
- susceptibility to apoptosis [17]: did not undergo apoptosis
- cell death ([18]; RA929): ~100%
- cell death ([18]; RA-716): ~100%
- cell death ([18]; RA-811): ~100%
- cell death ([18]; RA-1014): ~100%
- susceptibility to apoptosis [19]: completely resistant
- production/release of MMPs [3]: not associated with increased release
- hepatocytes killed ([20]; 6-hour culture period, 500 ng/ml TRAIL): Over 20%
- hepatocytes killed ([20]; end of 24-hour culture, 1 μg/ml, TRAIL plus crosslinker): more than 80%
- liver injury after intravenous injection [21]: did not exhibit increased liver injury

B1: humanized TRA-8: humanized TRA-8, cotransfection of pHB14-1 and pSR/M2-1: H2 type heavy chain (SEQ ID No. 31), LM2 light chain (SEQ ID No. 46) (antibody)
VH: EVMLVESGGGLVQPGGSLRLSCAASGFTFSSYVMSWVRQAPGKGLEWVATISSGGSYTYYPDSVKGRFTISRDNAKNTLYLQMNSLRAEDTAVYYCARRGDSMITTDYWGQGTLVTVSS
light: DIVMTQSPSSLSASVGDRVTITCKASQDVGTAVAWYQQKPGKAPKLLIYWASTRHTGVPSRFSGSGSGTDFTLTISSLQPEDFATYYCQQYSSYRTFGQGTKVEIKRTVAAPSVFIFPPSDEQLKSGTASVVCLLNNFYPREAKVQWKVDNALQSGNSQESVTEQDSKDSTYSLSSTLTLSKADYEKHKVYACEVTHQGLSSPVTKSFNRGEC
- induction of apoptosis [22]: induce apoptosis
